The values that follow come from article PMC5218480 (PLoS ONE, 2017).

In this experiment the test system is MV-4-11 cells. The experiment in a line: Gene expression microarray analysis (Affymetrix PrimeView) and GSEA. Type of experiment: cell-based, human. On the set-up: RFU PODN (11730768_x_at) / Fold change /veh PODN (11730768_x_at) / RFU LINC00158 (11744669_a_at) / Fold change /veh LINC00158 (11744669_a_at) / RFU DUSP10 (11751237_a_at) / Fold change /veh DUSP10 (11751237_a_at) / RFU ID3 (11757404_x_at) / Fold change /veh ID3 (11757404_x_at) / RFU PLEKHG5 (11737974_s_at) / Fold change /veh PLEKHG5 (11737974_s_at) / RFU LRRC4B (11730491_at) / Fold change /veh LRRC4B (11730491_at) / RFU GIMAP4 (11747438_a_at) / Fold change /veh GIMAP4 (11747438_a_at) / RFU KRT8 (11758183_x_at) / Fold change /veh KRT8 (11758183_x_at) / RFU CNN1 (11734310_a_at) / Fold change /veh CNN1 (11734310_a_at) / RFU VPS37D (11726825_at) / Fold change /veh VPS37D (11726825_at) / RFU C10orf10 (11716522_x_at) / Fold change /veh C10orf10 (11716522_x_at) / RFU KIR2DL2 /// KIR2DL4 /// KIR2DL5A /// KIR2DL5B /// KIR2DS1 /// KIR2DS2 /// KIR2DS3 /// KIR2DS4 /// KIR3DL3 /// KIR3DL3 /// KIR3DS1 (11738374_at) / Fold change /veh KIR2DL2 /// KIR2DL4 /// KIR2DL5A /// KIR2DL5B /// KIR2DS1 /// KIR2DS2 /// KIR2DS3 /// KIR2DS4 /// KIR3DL3 /// KIR3DL3 /// KIR3DS1 (11738374_at) / RFU C1QL1 (11718748_at) / Fold change /veh C1QL1 (11718748_at) / RFU TMPRSS4 (11747572_a_at) / Fold change /veh TMPRSS4 (11747572_a_at) / RFU HAMP (11756126_x_at) / Fold change /veh HAMP (11756126_x_at) / RFU RNFT2 (11725882_a_at) / Fold change /veh RNFT2 (11725882_a_at) / RFU NR4A2 (11747474_a_at) / Fold change /veh NR4A2 (11747474_a_at) / RFU ABCC12 (11746883_a_at) / Fold change /veh ABCC12 (11746883_a_at) / RFU TMEM136 (11760407_x_at) / Fold change /veh TMEM136 (11760407_x_at) / RFU CLDN22 /// WWC2 (11732394_at) / Fold change /veh CLDN22 /// WWC2 (11732394_at) / RFU HLA-DPB1 (11760878_x_at) / Fold change /veh HLA-DPB1 (11760878_x_at) / RFU SPINT1 (11716480_a_at) / Fold change /veh SPINT1 (11716480_a_at) / RFU GAP43 (11754022_s_at) / Fold change /veh GAP43 (11754022_s_at) / RFU A4GNT (11735810_at) / Fold change /veh A4GNT (11735810_at) / RFU PRB3 (11715151_x_at) / Fold change /veh PRB3 (11715151_x_at) / RFU TUBB4B (11761932_at) / Fold change /veh TUBB4B (11761932_at) / RFU CAPN14 (11732068_a_at) / Fold change /veh CAPN14 (11732068_a_at) / RFU TMCC2 (11721928_a_at) / Fold change /veh TMCC2 (11721928_a_at) / RFU IRGQ (11745062_a_at) / Fold change /veh IRGQ (11745062_a_at) / RFU FAM174B (11720279_a_at) / Fold change /veh FAM174B (11720279_a_at) / RFU TMPRSS4 (11748680_a_at) / Fold change /veh TMPRSS4 (11748680_a_at) / RFU FAM212B (11763350_a_at) / Fold change /veh FAM212B (11763350_a_at) / RFU PLEKHG5 (11743358_a_at) / Fold change /veh PLEKHG5 (11743358_a_at) / RFU ZSCAN30 (11745921_a_at) / Fold change /veh ZSCAN30 (11745921_a_at) / RFU CMKLR1 (11741424_a_at) / Fold change /veh CMKLR1 (11741424_a_at) / RFU LOC101060620 /// MAPK8IP1 (11723275_at) / Fold change /veh LOC101060620 /// MAPK8IP1 (11723275_at) / RFU SPTSSB (11747773_x_at) / Fold change /veh SPTSSB (11747773_x_at) / RFU PRSS12 (11739890_at) / Fold change /veh PRSS12 (11739890_at) / RFU BIN1 (11741810_x_at) / Fold change /veh BIN1 (11741810_x_at) / RFU WNT11 (11732464_a_at) / Fold change /veh WNT11 (11732464_a_at) / RFU C10orf10 (11716521_a_at) / Fold change /veh C10orf10 (11716521_a_at) / RFU C5orf56 (11738089_at) / Fold change /veh C5orf56 (11738089_at) / RFU CYB561 (11721691_x_at) / Fold change /veh CYB561 (11721691_x_at) / RFU ANKRD19P (11752326_a_at) / Fold change /veh ANKRD19P (11752326_a_at) / RFU OR2T12 /// OR2T33 /// OR2T8 (11738714_s_at) / Fold change /veh OR2T12 /// OR2T33 /// OR2T8 (11738714_s_at) / RFU VCAN (11748164_a_at) / Fold change /veh VCAN (11748164_a_at) / RFU JSRP1 (11732532_at) / Fold change /veh JSRP1 (11732532_at) / RFU KRTAP10-11 (11738290_x_at) / Fold change /veh KRTAP10-11 (11738290_x_at) / RFU MYO3A (11730013_a_at) / Fold change /veh MYO3A (11730013_a_at) / RFU EBF3 (11725865_a_at) / Fold change /veh EBF3 (11725865_a_at) / RFU CAMK2N1 (11719241_x_at) / Fold change /veh CAMK2N1 (11719241_x_at) / RFU C5orf56 (11738088_a_at) / Fold change /veh C5orf56 (11738088_a_at) / RFU OLFML3 (11715873_a_at) / Fold change /veh OLFML3 (11715873_a_at) / RFU LOC100653217 /// NTM (11731650_a_at) / Fold change /veh LOC100653217 /// NTM (11731650_a_at) / RFU MAPK11 (11762145_a_at) / Fold change /veh MAPK11 (11762145_a_at) / RFU FIZ1 (11724087_x_at) / Fold change /veh FIZ1 (11724087_x_at) / RFU OASL (11726364_x_at) / Fold change /veh OASL (11726364_x_at) / RFU SOX15 (11748057_x_at) / Fold change /veh SOX15 (11748057_x_at) / RFU CD79A (11719716_a_at) / Fold change /veh CD79A (11719716_a_at) / RFU HIST1H1D (11736915_at) / Fold change /veh HIST1H1D (11736915_at) / RFU CASKIN2 (11723855_a_at) / Fold change /veh CASKIN2 (11723855_a_at) / RFU LOC730098 (11760151_x_at) / Fold change /veh LOC730098 (11760151_x_at) / RFU OR4N2 (11742367_at) / Fold change /veh OR4N2 (11742367_at) / RFU PRRT2 (11749266_a_at) / Fold change /veh PRRT2 (11749266_a_at) / RFU SNX32 (11753110_a_at) / Fold change /veh SNX32 (11753110_a_at) / RFU CDHR5 (11726645_a_at) / Fold change /veh CDHR5 (11726645_a_at) / RFU RCAN1 (11760418_a_at) / Fold change /veh RCAN1 (11760418_a_at) / RFU FAM167A (11723789_a_at) / Fold change /veh FAM167A (11723789_a_at) / RFU FAM26E (11764081_at) / Fold change /veh FAM26E (11764081_at) / RFU ISYNA1 (11749810_s_at) / Fold change /veh ISYNA1 (11749810_s_at) / RFU ACY1 (11761880_at) / Fold change /veh ACY1 (11761880_at) / RFU 11764098_at / Fold change /veh 11764098_at / RFU SAMD14 (11745864_x_at) / Fold change /veh SAMD14 (11745864_x_at) / RFU NPB (11741838_a_at) / Fold change /veh NPB (11741838_a_at) / RFU TMPRSS6 (11731388_a_at) / Fold change /veh TMPRSS6 (11731388_a_at) / RFU KRTAP10-2 (11738614_at) / Fold change /veh KRTAP10-2 (11738614_at) / RFU ARHGAP8 /// PRR5-ARHGAP8 (11727945_x_at) / Fold change /veh ARHGAP8 /// PRR5-ARHGAP8 (11727945_x_at) / RFU KRTAP5-7 /// NADSYN1 (11734609_at) / Fold change /veh KRTAP5-7 /// NADSYN1 (11734609_at) / RFU RASL12 (11751679_a_at) / Fold change /veh RASL12 (11751679_a_at) / RFU CDKN2B (11736163_a_at) / Fold change /veh CDKN2B (11736163_a_at) / RFU PRF1 (11729649_at) / Fold change /veh PRF1 (11729649_at) / RFU, ZNF638 /// ZNF638-IT1 / Fold change vs veh, ZNF638 /// ZNF638-IT1 / RFU, PANK3 / Fold change vs veh, PANK3 / RFU, SH3YL1 / Fold change vs veh, SH3YL1 / RFU, ZEB2 / Fold change vs veh, ZEB2 / RFU, NRIP1 / Fold change vs veh, NRIP1 / RFU, PTTG1IP / Fold change vs veh, PTTG1IP / RFU, CAPN2 / Fold change vs veh, CAPN2 / RFU, MED14 / Fold change vs veh, MED14 / RFU, SNORA58 / Fold change vs veh, SNORA58 / RFU, C1orf63 / Fold change vs veh, C1orf63 / RFU, LRRFIP1 / Fold change vs veh, LRRFIP1 / RFU, NDUFAF7 / Fold change vs veh, NDUFAF7 / RFU, SLC12A2 / Fold change vs veh, SLC12A2 / RFU, IBTK / Fold change vs veh, IBTK / RFU, ESF1 / Fold change vs veh, ESF1 / Fold change vs veh, TMEM50B / RFU, TAOK1 / Fold change vs veh, TAOK1 / RFU, ACBD3 / Fold change vs veh, ACBD3 / RFU, TMA16 / Fold change vs veh, TMA16 / RFU, RWDD3 / Fold change vs veh, RWDD3 / RFU, BCAT1 / Fold change vs veh, BCAT1 / RFU, EDEM3 / Fold change vs veh, EDEM3 / RFU, TMEM33 / Fold change vs veh, TMEM33 / RFU, WDR75 / Fold change vs veh, WDR75 / RFU, AHCTF1 / Fold change vs veh, AHCTF1 / RFU, TFRC / Fold change vs veh, TFRC / RFU, ZDHHC17 / Fold change vs veh, ZDHHC17 / RFU, NOM1 / Fold change vs veh, NOM1 / RFU, ARL8B / Fold change vs veh, ARL8B / RFU, ZBTB11 / Fold change vs veh, ZBTB11 / RFU, TAMM41 / Fold change vs veh, TAMM41 / RFU, KIAA1704 /// LOC100996395 / Fold change vs veh, KIAA1704 /// LOC100996395 / RFU, ING1 / Fold change vs veh, ING1 / RFU, TRMT61B / Fold change vs veh, TRMT61B / RFU, FUBP3 / Fold change vs veh, FUBP3 / RFU, TP53 / Fold change vs veh, TP53 / RFU, TNKS2 / Fold change vs veh, TNKS2 / RFU, ZFP14 / Fold change vs veh, ZFP14 / RFU, ACTR2 / Fold change vs veh, ACTR2 / RFU, PPP3R1 / Fold change vs veh, PPP3R1 / RFU, PIK3R1 / Fold change vs veh, PIK3R1 / RFU, HNRNPA1 / Fold change vs veh, HNRNPA1 / RFU, RNF170 / Fold change vs veh, RNF170 / RFU, ZNF28 / Fold change vs veh, ZNF28 / RFU, RNGTT / Fold change vs veh, RNGTT / RFU, OGT / Fold change vs veh, OGT / RFU, BRD1 / Fold change vs veh, BRD1 / RFU, MARS / Fold change vs veh, MARS / RFU, ZNF655 / Fold change vs veh, ZNF655 / RFU, FAHD1 / Fold change vs veh, FAHD1 / RFU, BDP1 / Fold change vs veh, BDP1 / RFU, LRRCC1 / Fold change vs veh, LRRCC1 / RFU, ARID1A / Fold change vs veh, ARID1A / RFU, ZNF146 / Fold change vs veh, ZNF146 / RFU, ZNF330 / Fold change vs veh, ZNF330 / RFU, GPN3 / Fold change vs veh, GPN3 / RFU, C9orf123 / Fold change vs veh, C9orf123 / RFU, N4BP2L2 / Fold change vs veh, N4BP2L2 / RFU, ARFIP1 / Fold change vs veh, ARFIP1 / RFU, FAM179B / Fold change vs veh, FAM179B / RFU, BCL10 / Fold change vs veh, BCL10 / RFU, UHRF1BP1L / Fold change vs veh, UHRF1BP1L / RFU, BET1 / Fold change vs veh, BET1 / RFU, CNOT2 / Fold change vs veh, CNOT2 / RFU, ZNF268 / Fold change vs veh, ZNF268 / Fold change vs veh, ZNF507 / RFU, DGCR2 / Fold change vs veh, DGCR2 / RFU, WDSUB1 / Fold change vs veh, WDSUB1 / Fold change vs veh, HSP90B1 /// MIR3652 / RFU, ADSS / Fold change vs veh, ADSS / RFU, GK / Fold change vs veh, GK / RFU, ZNF148 / Fold change vs veh, ZNF148 / RFU, TAF9 / Fold change vs veh, TAF9 / RFU, SLC1A5 / Fold change vs veh, SLC1A5 / RFU, SLMO2 / Fold change vs veh, SLMO2 / RFU, ABCC4 / Fold change vs veh, ABCC4 / RFU, LOC101060439 /// RAP1B / Fold change vs veh, LOC101060439 /// RAP1B / RFU, RFX7 / Fold change vs veh, RFX7 / RFU, GTPBP10 / Fold change vs veh, GTPBP10 / RFU, CNEP1R1 / Fold change vs veh, CNEP1R1 / RFU, BIVM-ERCC5 /// ERCC5 / Fold change vs veh, BIVM-ERCC5 /// ERCC5 / RFU, ILF3 / Fold change vs veh, ILF3 / RFU 11762660_at / Fold change /veh 11762660_at / RFU VCAN (11757783_s_at) / Fold change /veh VCAN (11757783_s_at) / RFU DDX43 (11728927_at) / Fold change /veh DDX43 (11728927_at) / RFU KRT8 (11758188_x_at) / Fold change /veh KRT8 (11758188_x_at) / RFU NKD1 (11759106_at) / Fold change /veh NKD1 (11759106_at) / RFU SRD5A1 (11742802_a_at) / Fold change /veh SRD5A1 (11742802_a_at) / RFU TPSAB1 /// TPSB2 (11721975_s_at) / Fold change /veh TPSAB1 /// TPSB2 (11721975_s_at) / RFU GSTM3 (11746129_a_at) / Fold change /veh GSTM3 (11746129_a_at) / RFU IL23R (11737362_x_at) / Fold change /veh IL23R (11737362_x_at) / RFU TMEM51 (11727254_a_at) / Fold change /veh TMEM51 (11727254_a_at) / RFU PIWIL2 (11732686_x_at) / Fold change /veh PIWIL2 (11732686_x_at) / RFU ORM1 (11744905_x_at) / Fold change /veh ORM1 (11744905_x_at) / RFU CCDC152 (11743942_at) / Fold change /veh CCDC152 (11743942_at) / RFU ECM1 (11717891_a_at) / Fold change /veh ECM1 (11717891_a_at) / RFU IL23R (11748794_a_at) / Fold change /veh IL23R (11748794_a_at) / RFU TNFAIP8L3 (11732012_x_at) / Fold change /veh TNFAIP8L3 (11732012_x_at) / RFU MBOAT4 (11741988_at) / Fold change /veh MBOAT4 (11741988_at) / RFU 11764193_at / Fold change /veh 11764193_at / RFU TMEM53 (11763286_at) / Fold change /veh TMEM53 (11763286_at) / RFU MAGEB2 (11727129_at) / Fold change /veh MAGEB2 (11727129_at) / RFU TMEM200A (11744735_a_at) / Fold change /veh TMEM200A (11744735_a_at) / RFU CCDC152 (11751479_a_at) / Fold change /veh CCDC152 (11751479_a_at) / RFU FAM211A (11726209_a_at) / Fold change /veh FAM211A (11726209_a_at) / RFU RGS16 (11746705_a_at) / Fold change /veh RGS16 (11746705_a_at) / RFU VCAN (11755009_s_at) / Fold change /veh VCAN (11755009_s_at) / RFU RHOB (11743442_s_at) / Fold change /veh RHOB (11743442_s_at) / RFU RGS16 (11720943_a_at) / Fold change /veh RGS16 (11720943_a_at) / RFU RGS16 (11720944_at) / Fold change /veh RGS16 (11720944_at) / RFU, VPS4B / Fold change vs veh, VPS4B / RFU, CREB1 / Fold change vs veh, CREB1 / RFU, DNAJC13 / Fold change vs veh, DNAJC13 / RFU, GNAQ / Fold change vs veh, GNAQ / RFU, CDK5R1 / Fold change vs veh, CDK5R1 / RFU, ZRANB3 / Fold change vs veh, ZRANB3 / RFU, CUL4A / Fold change vs veh, CUL4A / RFU, CCNY / Fold change vs veh, CCNY / RFU, UFL1 / Fold change vs veh, UFL1 / RFU, COG3 / Fold change vs veh, COG3 / RFU, DIAPH2 / Fold change vs veh, DIAPH2 / RFU, SKA2 / Fold change vs veh, SKA2 / RFU, AFF3 / Fold change vs veh, AFF3 / RFU, LMF1 / Fold change vs veh, LMF1 / RFU, IPO11 / Fold change vs veh, IPO11 / RFU, DFFB / Fold change vs veh, DFFB / RFU, FOXP1 / Fold change vs veh, FOXP1 / RFU, CARD8 / Fold change vs veh, CARD8 / RFU, STRN3 / Fold change vs veh, STRN3 / RFU, ADK / Fold change vs veh, ADK / RFU, RASSF2 / Fold change vs veh, RASSF2 / RFU, WIPF1 / Fold change vs veh, WIPF1 / RFU, LARP1B / Fold change vs veh, LARP1B / RFU, RASA1 / Fold change vs veh, RASA1 / RFU, RB1 / Fold change vs veh, RB1 / RFU, PPFIA1 / Fold change vs veh, PPFIA1 / RFU, MAT2A / Fold change vs veh, MAT2A / RFU, CCT5 / Fold change vs veh, CCT5 / RFU, WDR92 / Fold change vs veh, WDR92 / RFU, CUX1 / Fold change vs veh, CUX1 / RFU, TTC7A / Fold change vs veh, TTC7A / RFU, TMEM135 / Fold change vs veh, TMEM135 / RFU, DEPTOR / Fold change vs veh, DEPTOR / RFU, CPM / Fold change vs veh, CPM / RFU, DNAJB6 / Fold change vs veh, DNAJB6 / RFU, CACNA2D3 / Fold change vs veh, CACNA2D3 / RFU, DTX4 / Fold change vs veh, DTX4 / RFU, TFCP2 / Fold change vs veh, TFCP2 / RFU, GMCL1 /// GMCL1P1 / Fold change vs veh, GMCL1 /// GMCL1P1 / RFU, AEBP2 / Fold change vs veh, AEBP2 / RFU, SNHG1 /// SNORD22 /// SNORD25 /// SNORD26 /// SNORD27 /// SNORD28 /// SNORD29 /// SNORD31 / Fold change vs veh, SNHG1 /// SNORD22 /// SNORD25 /// SNORD26 /// SNORD27 /// SNORD28 /// SNORD29 /// SNORD31 / Fold change (Aza/veh), C12orf56 (ProbeSet 11735607_a_at) / Fold change (ACY-1035/veh), C12orf56 (ProbeSet 11735607_a_at) / Fold change (Aza/veh), FGFR1OP (ProbeSet 11751329_s_at) / Fold change (ACY-1035/veh), FGFR1OP (ProbeSet 11751329_s_at) / Fold change (Aza/veh), VPS36 (ProbeSet 11739960_a_at) / Fold change (ACY-1035/veh), VPS36 (ProbeSet 11739960_a_at) / RFU SYPL1 (11715823_x_at) / Fold change /veh SYPL1 (11715823_x_at) / RFU IGFBP7 (11715501_s_at) / Fold change /veh IGFBP7 (11715501_s_at) / RFU REEP3 (11722064_at) / Fold change /veh REEP3 (11722064_at) / RFU IGLL1 (11728026_x_at) / Fold change /veh IGLL1 (11728026_x_at): dose or concentration left out as unconfirmed. The conditions noted are these: MV-4-11 cells, 48 hours.

On to `Nc1ccc(-c2cccs2)cc1NC(=O)c1ccc2c(c1)cc(C1CC1)n2CCN1CCOCC1` [ACY-1035], for which the “RFU EBF3 (11725865_a_at)” value was determined as 63.04 RFU.
